Results: patent publication US10758534B2 (Vertex Pharmaceuticals Incorporated, priority 2014, dated 2020)

Each compound was assayed against T1, F508del (Homo sapiens, UniProt P13569, DEL508-508) (assay: Protocol 2: FRET membrane potential optical assay (VIPR), identification of correction compounds). Settings: F508del CFTR modulator activity; compounds of Table 1; read-out: EC30.
T1 construct: expressed in transfected cells
Type: cell-based
In short: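 NIH3T3 mouse fibroblasts stably expressing F508del-CFTR incubated with compound 16 h at 37 °C in serum-free medium, then loaded with CC2-DMPE/DiSBAC2(3) FRET dyes. Channel activated with 10 μM forskolin plus 20 μM genistein in Cl⁻-free (gluconate) bath; depolarisation from Cl⁻ efflux read on VIPR II.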

T1 sequence (P13569 with tags, fused parts or gaps DEL508-508): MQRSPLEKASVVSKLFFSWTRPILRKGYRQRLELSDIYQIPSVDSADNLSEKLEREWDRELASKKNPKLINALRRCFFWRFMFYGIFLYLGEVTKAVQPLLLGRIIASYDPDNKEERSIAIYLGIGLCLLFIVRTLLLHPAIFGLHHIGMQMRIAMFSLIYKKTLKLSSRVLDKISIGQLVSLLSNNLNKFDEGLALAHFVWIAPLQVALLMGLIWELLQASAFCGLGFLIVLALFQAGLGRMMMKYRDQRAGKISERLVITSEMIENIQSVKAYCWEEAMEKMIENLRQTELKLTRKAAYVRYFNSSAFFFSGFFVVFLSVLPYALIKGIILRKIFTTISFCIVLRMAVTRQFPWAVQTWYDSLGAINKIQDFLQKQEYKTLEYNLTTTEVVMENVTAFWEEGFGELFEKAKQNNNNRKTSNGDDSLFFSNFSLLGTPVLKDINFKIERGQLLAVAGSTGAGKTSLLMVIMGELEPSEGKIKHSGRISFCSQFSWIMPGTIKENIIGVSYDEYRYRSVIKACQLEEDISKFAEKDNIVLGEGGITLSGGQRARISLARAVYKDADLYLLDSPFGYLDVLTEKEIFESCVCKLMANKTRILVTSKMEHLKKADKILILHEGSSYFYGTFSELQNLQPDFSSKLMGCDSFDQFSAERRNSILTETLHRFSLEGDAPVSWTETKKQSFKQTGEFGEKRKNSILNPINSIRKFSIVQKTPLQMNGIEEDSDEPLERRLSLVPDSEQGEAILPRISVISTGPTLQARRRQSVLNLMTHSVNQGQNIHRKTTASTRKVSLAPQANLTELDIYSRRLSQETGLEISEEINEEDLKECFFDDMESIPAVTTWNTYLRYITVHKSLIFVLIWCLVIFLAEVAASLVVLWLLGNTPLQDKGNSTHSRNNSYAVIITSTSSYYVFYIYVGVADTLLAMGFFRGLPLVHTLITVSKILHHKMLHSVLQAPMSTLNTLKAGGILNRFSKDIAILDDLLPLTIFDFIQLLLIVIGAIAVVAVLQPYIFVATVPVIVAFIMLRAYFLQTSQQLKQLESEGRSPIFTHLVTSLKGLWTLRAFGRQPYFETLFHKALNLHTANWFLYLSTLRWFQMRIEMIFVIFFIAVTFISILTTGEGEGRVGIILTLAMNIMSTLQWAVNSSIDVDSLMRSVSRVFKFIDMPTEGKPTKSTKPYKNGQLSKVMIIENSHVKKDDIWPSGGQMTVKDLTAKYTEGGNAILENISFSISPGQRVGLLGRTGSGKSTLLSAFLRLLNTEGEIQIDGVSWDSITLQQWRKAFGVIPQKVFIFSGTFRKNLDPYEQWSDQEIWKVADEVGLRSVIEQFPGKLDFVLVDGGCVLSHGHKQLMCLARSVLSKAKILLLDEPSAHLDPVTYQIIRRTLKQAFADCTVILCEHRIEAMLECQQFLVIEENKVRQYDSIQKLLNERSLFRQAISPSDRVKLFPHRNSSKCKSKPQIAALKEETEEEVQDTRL

SMILES | EC30 [nM]
CCOCCNc1cccc(S(=O)(=O)NC(=O)c2cccnc2N2CC(C)CC2(C)C)n1 (stereo not shown) [Compound 2354, N—[[6-(2-ethoxyethylamino)-2-pyridyl]sulfonyl]-2-(2,2,4-trimethylpyrrolidin-1-yl)pyridine-3-carboxamide] | 3000 to 10000
COc1cc(F)ccc1-c1ccc(C(=O)NS(=O)(=O)c2ccc[nH]c2=O)c(N2C[C@@H](C)CC2(C)C)n1 [Compound 2356, 6-(4-fluoro-2-methoxy-phenyl)-N-[(2-oxo-1H-pyridin-3-yl)sulfonyl]-2-[(4S)-2,2,4-trimethylpyrrolidin-1-yl]pyridine-3-carboxamide] | < 3000
COc1cc(Nc2cccc(S(=O)(=O)NC(=O)c3cccnc3N3CC(C)CC3(C)C)n2)cc(OC)c1 (stereo not shown) [Compound 2357, N—[[6-(3,5-dimethoxyanilino)-2-pyridyl]sulfonyl]-2-(2,2,4-trimethylpyrrolidin-1-yl)pyridine-3-carboxamide] | < 3000
CC1CN(c2ncccc2C(=O)NS(=O)(=O)c2cccc(NCCc3ccccn3)n2)C(C)(C)C1 (stereo not shown) [Compound 2359, N—[[6-[2-(2-pyridyl)ethylamino]-2-pyridyl]sulfonyl]-2-(2,2,4-trimethylpyrrolidin-1-yl)pyridine-3-carboxamide] | 3000 to 10000
CC(C)Oc1ccn(-c2ccc(C(=O)NS(=O)(=O)c3ccc[nH]c3=O)c(N3C[C@@H](C)CC3(C)C)n2)n1 [Compound 2360, 6-(3-isopropoxypyrazol-1-yl)-N-[(2-oxo-1H-pyridin-3-yl)sulfonyl]-2-[(4S)-2,2,4-trimethylpyrrolidin-1-yl]pyridine-3-carboxamide] | 3000 to 10000
CC1CC=C(c2cnc(N3CC(C)CC3(C)C)c(C(=O)NS(=O)(=O)c3cccc(N)n3)c2)CC1 (stereo not shown) [Compound 2361, N-[(6-amino-2-pyridyl)sulfonyl]-5-(4-methylcyclohexen-1-yl)-2-(2,2,4-trimethylpyrrolidin-1-yl)pyridine-3-carboxamide] | < 3000
COc1ccc(-c2ccc(C(=O)NS(=O)(=O)c3ccc[nH]c3=O)c(N3C[C@@H](C)CC3(C)C)n2)cc1C [Compound 2369, 6-(4-methoxy-3-methyl-phenyl)-N-[(2-oxo-1H-pyridin-3-yl)sulfonyl]-2-[(4S)-2,2,4-trimethylpyrrolidin-1-yl]pyridine-3-carboxamide] | < 3000
C[C@@H]1CN(c2nc(C(C)(C)C)c(C(O)C(O)C(C)(C)C)cc2C(=O)NS(=O)(=O)c2cccc(N)n2)C(C)(C)C1 (stereo partly shown) [Compound 2370] | < 3000
CC1CN(c2ncccc2C(=O)NS(=O)(=O)c2cccc(OC3CCC3)n2)C(C)(C)C1 (stereo not shown) [Compound 2371, N—[[6-(cyclobutoxy)-2-pyridyl]sulfonyl]-2-(2,2,4-trimethylpyrrolidin-1-yl)pyridine-3-carboxamide] | < 3000
CC(C)COc1cc(F)cc(-c2ccc(C(=O)NS(=O)(=O)c3cccc(N)n3)c(NCC3CCCCC3)n2)c1 [Compound 2375, N-[(6-amino-2-pyridyl)sulfonyl]-2-(cyclohexylmethylamino)-6-(3-fluoro-5-isobutoxy-phenyl)pyridine-3-carboxamide] | 3000 to 10000
CC(C)COc1cc(F)cc(-c2ccc(C(=O)NS(=O)(=O)c3cccc(N)n3)c(N3CCCC4CC43)n2)c1 (stereo not shown) [Compound 2376, N-[(6-amino-2-pyridyl)sulfonyl]-2-(5-azabicyclo[4.1.0]heptan-5-yl)-6-(3-fluoro-5-isobutoxy-phenyl)pyridine-3-carboxamide] | < 3000
CC(C)COc1cc(F)cc(-c2ccc(C(=O)NS(=O)(=O)c3cccnc3)c(N3C[C@@H](C)CC3(C)C)n2)c1 [Compound 2377, 6-(3-fluoro-5-isobutoxy-phenyl)-N-(3-pyridylsulfonyl)-2-[(4S)-2,2,4-trimethylpyrrolidin-1-yl]pyridine-3-carboxamide] | < 3000

Results, then the compound that gave them:

EC30 [nM] | SMILES
< 3000 | COc1c(F)cccc1-c1ccc(C(=O)NS(=O)(=O)c2cccnc2N)c(N2C[C@@H](C)CC2(C)C)n1 [Compound 2355, N-[(2-amino-3-pyridyl)sulfonyl]-6-(3-fluoro-2-methoxy-phenyl)-2-[(4S)-2,2,4-trimethylpyrrolidin-1-yl]pyridine-3-carboxamide]
< 3000 | Cc1ccc(-c2ccc(C(=O)NS(=O)(=O)c3cccc(N)n3)c(N3CC(C)CC3(C)C)n2)nc1NCC(C)C (stereo not shown) [Compound 2362, N-[(6-amino-2-pyridyl)sulfonyl]-6-[6-(isobutylamino)-5-methyl-2-pyridyl]-2-(2,2,4-trimethylpyrrolidin-1-yl)pyridine-3-carboxamide]
3000 to 10000 | Cc1ccc(-c2ccc(C(=O)NS(=O)(=O)c3cccnc3N)c(N3C[C@@H](C)CC3(C)C)n2)cn1 [Compound 2363, N-[(2-amino-3-pyridyl)sulfonyl]-6-(6-methyl-3-pyridyl)-2-[(4S)-2,2,4-trimethylpyrrolidin-1-yl]pyridine-3-carboxamide]
< 3000 | CCOc1cc(-c2ccc(C(=O)NS(=O)(=O)c3cccc(N)n3)c(N3C[C@@H](C)CC3(C)C)n2)cc(C)n1 [Compound 2364, N-[(6-amino-2-pyridyl)sulfonyl]-6-(2-ethoxy-6-methyl-4-pyridyl)-2-[(4S)-2,2,4-trimethylpyrrolidin-1-yl]pyridine-3-carboxamide]
< 3000 | CC1CN(c2ncccc2C(=O)NS(=O)(=O)c2cccc(NCc3cccc(C(F)(F)F)n3)n2)C(C)(C)C1 (stereo not shown) [Compound 2365, N—[[6-[[6-(trifluoromethyl)-2-pyridyl]methylamino]-2-pyridyl]sulfonyl]-2-(2,2,4-trimethylpyrrolidin-1-yl)pyridine-3-carboxamide]
< 3000 | C[C@@H]1CN(c2nc(-c3cccc(OC(F)(F)F)c3)ccc2C(=O)NS(=O)(=O)c2cccc(N)n2)C(C)(C)C1 [Compound 2366, N-[(6-amino-2-pyridyl)sulfonyl]-6-[3-(trifluoromethoxy)phenyl]-2-[(4S)-2,2,4-trimethylpyrrolidin-1-yl]pyridine-3-carboxamide]
< 3000 | C[C@@H]1CN(c2nc(-c3ccc(Cl)cc3)ccc2C(=O)NS(=O)(=O)c2cccnc2N)C(C)(C)C1 [Compound 2367, N-[(2-amino-3-pyridyl)sulfonyl]-6-(4-chlorophenyl)-2-[(4S)-2,2,4-trimethylpyrrolidin-1-yl]pyridine-3-carboxamide]
< 3000 | CC(C)c1ccc(-c2ccc(C(=O)NS(=O)(=O)c3cccnc3N)c(N3C[C@@H](C)CC3(C)C)n2)cc1 [Compound 2368, N-[(2-amino-3-pyridyl)sulfonyl]-6-(4-isopropylphenyl)-2-[(4S)-2,2,4-trimethylpyrrolidin-1-yl]pyridine-3-carboxamide]
< 3000 | C[C@@H]1CN(c2nc(-c3ccc(F)cc3F)ccc2C(=O)NS(=O)(=O)c2cccc(N)n2)C(C)(C)C1 [Compound 2372, N-[(6-amino-2-pyridyl)sulfonyl]-6-(2,4-difluorophenyl)-2-[(4S)-2,2,4-trimethylpyrrolidin-1-yl]pyridine-3-carboxamide]
< 3000 | CC1CN(c2nc(OC(C)C3CC3)c(F)cc2C(=O)NS(=O)(=O)c2cccc(N)n2)C(C)(C)C1 (stereo not shown) [Compound 2373, N-[(6-amino-2-pyridyl)sulfonyl]-6-(1-cyclopropylethoxy)-5-fluoro-2-(2,2,4-trimethylpyrrolidin-1-yl)pyridine-3-carboxamide]
